Reference: ChEMBL document CHEMBL1149989, “Synthesis and biological evaluation of flavonoids and related compounds as gastroprotective agents” (1996)

Each molecule was assayed on Rattus norvegicus (assay: Effective dose gastroprotective activity in rat ethanol-induced damage model following intraperitoneal administration.). Conditions: ip.
Format: functional

Molecule `CCc1cc(=O)c2ccccc2o1` has an ED50 of 4.3 mg/kg.

Each molecule was assayed on Rattus norvegicus (assay: Effective dose for gastroprotective activity in rat ethanol-induced damage model following intraperitoneal administration.). Conditions: ip.
Format: functional

In order of rising ED50:
1. Cc1cc(=O)c2ccccc2o1  5.4 mg/kg
2. O=c1cc(-c2ccccc2)oc2ccccc12 [FLAVONE]  6.9 mg/kg

The molecules below were run on Rattus norvegicus (assay: Compound was tested for gastroprotective activity in rat ethanol-induced damage model following oral administration (0.1 mg/kg).). Conditions: not given.
Format: functional

In order of falling Protection:
1. CCCCC[C@H](O)/C=C/[C@H]1[C@H](O)CC(=O)[C@@H]1C/C=C\CCCC(=O)O [DINOPROSTONE]  64%
2. CN/C(=N\CCSCc1nc[nH]c1C)NC#N [CIMETIDINE]  14%

These molecules were tested on Rattus norvegicus (assay: Gastroprotective activity in rat ethanol-induced damage model following intraperitoneal administration.). Conditions: not given.
Format: functional
Design: concentration or dose not given beside the values

In order of rising Protection:
1. Oc1cc(-c2ccccc2)nc2ccccc12  17%
2. COc1ccccc1C(=O)CC(=O)c1ccccc1  19%
3. O=C1CC(c2ccccc2)Oc2ccccc21 (configuration not stated) [FLAVANONE]  24%
4. COc1cccc2c1C(=O)CC(c1ccccc1)O2 (configuration not stated)  32%
5. O=C(/C=C/c1ccccc1)c1ccccc1 [CHALCONE]  32%
6. Nc1ccccc1C(=O)/C=C/c1ccccc1  36%
7. S=c1cc(-c2ccccc2)oc2ccccc12  58%
8. O=c1cc(-c2ccccc2)sc2ccccc12  67%
9. Cn1c(-c2cc(=O)c3ccccc3o2)cc2ccccc21  74%
10. CCc1cc(=O)c2ccccc2o1  74%
11. Cc1cc(=O)c2ccccc2o1  76%
12. COc1cccc2oc(C)cc(=O)c12  81%
13. O=c1cc(-c2cccs2)oc2ccccc12  82%
14. O=c1cc(-c2ccccc2)oc2ccccc12 [FLAVONE]  88%
15. O=c1cc(-c2cccnc2)oc2ccccc12  97%

With `CC(C)Oc1ccc2c(=O)c(-c3ccccc3)coc2c1` [IPRIFLAVONE] the Protection was <10%.
`O=c1c(-c2ccccc2)coc2ccccc12` [ISOFLAVONE] was tested, and the Protection was <10%.
